One experiment concerns brains, heart, liver, muscle, and DRG of the NHPs. Description: Maturation of TTM-001 and TTM-002 capsids, NGS enrichment in NHP tissues. The format is in vivo. The settings on record: NGS fold-enrichment of RNA, NHP brain, relative to AAV9 control. The gist of the method:
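Variants carry mutations within and flanking the loop IV peptide insert: positions 450–466 were triplet-randomized, while positions 449–466 received low-frequency point mutations. The combined pool went into two NHPs, and each peptide was scored by NGS enrichment ratio against AAV9.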
Regarding KTIEGHDSPHKSGRNQQT, the “Fold Enrichment relative to AAV9, Brain (NHP)” value was determined as 75.838 fold.
Take KTIDGSGSPHSKAQNQQH: the “Fold Enrichment relative to AAV9, Brain (NHP)” value amounted to 79.090 fold.
On the same count and under the same terms, then KTDAGHDSPHKSGQNQQT, with 88.924 fold.
On the same count and under the same terms, the result for KTINGSGSPHSKSQTQQN reads 104.474 fold; that for KTDKTSGSPHSKAQNQQT, 81.430 fold.
For KTVNGHDSPHKIGHNQQT, the “Fold Enrichment relative to AAV9, Brain (NHP)” value came to 120.985 fold.

The experiment is the same for the next values; noted with them: NGS fold-enrichment of matured AAV capsid variants; NHP brain, RNA; relative to AAV9 control.
Turning to KTINGGGSPHSKAQNQMT, the “Fold Enrichment relative to AAV9, Brain (NHP)” value was 55.778 fold.
Regarding KTINGSGSPHSKAQKTLT, the “Fold Enrichment relative to AAV9, Brain (NHP)” value came to 56.844 fold.

Staying with this experiment, now noted: NGS fold-enrichment, DRG of NHPs, relative to AAV9 control.
On to KTIDGSGSPHSKAQNQQH, for which the “Fold Enrichment relative to AAV9, DRG (NHP)” value was 0.000 fold.
KTINGSGSPHSKSQTQQN: the “Fold Enrichment relative to AAV9, DRG (NHP)” value came out at 0.000 fold.
As for KTDKTSGSPHSKAQNQQT, the “Fold Enrichment relative to AAV9, DRG (NHP)” value stood at 0.000 fold.

Staying with this experiment, now noted: NGS fold-enrichment, NHP DRG, relative to AAV9 control.
On to KTIEGHDSPHKSGRNQQT, for which the “Fold Enrichment relative to AAV9, DRG (NHP)” value is on record as 0.000 fold.
Same read-out and setting: the result for KTIDGSGSPHSKAQNQQH reads 0.000 fold; that for KTDAGHDSPHKSGQNQQT, 0.000 fold; that for KTINGSGSPHSKSQTQQN, 0.000 fold.
For KTDKTSGSPHSKAQNQQT, the “Fold Enrichment relative to AAV9, DRG (NHP)” value is given as 0.000 fold.
Same read-out and setting: the result for KTVNGHDSPHKIGHNQQT reads 0.000 fold.

The experiment is the same for the next values; noted with them: NGS fold-enrichment, NHP heart, relative to AAV9 control.
For the sequence KTIEGHDSPHKSGRNQQT, the “Fold Enrichment relative to AAV9, Heart (NHP)” value amounted to 0.065 fold.
Still for that read-out and setting: then KTIDGSGSPHSKAQNQQH, with 0.000 fold.
Consider KTDAGHDSPHKSGQNQQT, for which the “Fold Enrichment relative to AAV9, Heart (NHP)” value came out at 0.013 fold.
Same read-out and setting: then KTINGSGSPHSKSQTQQN, with 0.131 fold.
Regarding KTDKTSGSPHSKAQNQQT, the “Fold Enrichment relative to AAV9, Heart (NHP)” value stood at 0.000 fold.
Take KTVNGHDSPHKIGHNQQT: the “Fold Enrichment relative to AAV9, Heart (NHP)” value was determined as 0.029 fold.

Staying with this experiment, now noted: NGS fold-enrichment, NHP liver DNA, relative to AAV9 control.
For the sequence KTIEGHDSPHKSGRNQQT, the “Fold Enrichment relative to AAV9, Liver DNA (NHP)” value came to 0.079 fold.
On the same count and under the same terms, then KTIDGSGSPHSKAQNQQH, with 0.049 fold; and KTDAGHDSPHKSGQNQQT, with 0.070 fold; and KTINGSGSPHSKSQTQQN, with 0.038 fold.
Same read-out and setting: the result for KTDKTSGSPHSKAQNQQT reads 0.291 fold; that for KTVNGHDSPHKIGHNQQT, 0.009 fold.

Still in this experiment, the particulars now being: NGS fold-enrichment, NHP liver RNA, relative to AAV9 control.
In the case of KTIEGHDSPHKSGRNQQT, the “Fold Enrichment relative to AAV9, Liver RNA (NHP)” value is given as 0.000 fold.
On to KTIDGSGSPHSKAQNQQH, for which the “Fold Enrichment relative to AAV9, Liver RNA (NHP)” value is recorded as 0.136 fold.
Same read-out and setting: the result for KTDAGHDSPHKSGQNQQT reads 1.076 fold; that for KTINGSGSPHSKSQTQQN, 0.084 fold; that for KTDKTSGSPHSKAQNQQT, 1.362 fold.
On the same count and under the same terms, then KTVNGHDSPHKIGHNQQT, with 0.000 fold.

The experiment is the same for the next values; noted with them: NGS fold-enrichment, NHP muscle, relative to AAV9 control.
KTIEGHDSPHKSGRNQQT: the “Fold Enrichment relative to AAV9, Muscle (NHP)” value is reported as 0.017 fold.
Regarding KTIDGSGSPHSKAQNQQH, the “Fold Enrichment relative to AAV9, Muscle (NHP)” value is 0.000 fold.
KTDAGHDSPHKSGQNQQT: the “Fold Enrichment relative to AAV9, Muscle (NHP)” value worked out at 0.000 fold.
Same read-out and setting: the result for KTINGSGSPHSKSQTQQN reads 0.000 fold; that for KTDKTSGSPHSKAQNQQT, 0.000 fold; that for KTVNGHDSPHKIGHNQQT, 0.000 fold.

The experiment is the same for the next values; noted with them: NGS fold-enrichment, RNA, brain of NHPs, relative to AAV9 control.
Consider KTIDGSGSPHSKAQNQQH, for which the “Fold Enrichment relative to AAV9, Brain (NHP)” value is 79.090 fold.
Consider KTINGSGSPHSKSQTQQN, for which the “Fold Enrichment relative to AAV9, Brain (NHP)” value is given as 104.474 fold.
On the same count and under the same terms, then KTDKTSGSPHSKAQNQQT, with 81.430 fold.

Still in this experiment, the particulars now being: NGS fold-enrichment, heart of NHPs, relative to AAV9 control.
Take KTIDGSGSPHSKAQNQQH: the “Fold Enrichment relative to AAV9, Heart (NHP)” value is 0.000 fold.
On the same count and under the same terms, then KTINGSGSPHSKSQTQQN, with 0.131 fold.
Still for that read-out and setting: the result for KTDKTSGSPHSKAQNQQT reads 0.000 fold.

The experiment is the same for the next values; noted with them: NGS fold-enrichment, liver DNA of NHPs, relative to AAV9 control.
Consider KTIDGSGSPHSKAQNQQH, for which the “Fold Enrichment relative to AAV9, Liver DNA (NHP)” value was found to be 0.049 fold.
On the same count and under the same terms, the result for KTINGSGSPHSKSQTQQN reads 0.038 fold.
Consider KTDKTSGSPHSKAQNQQT, for which the “Fold Enrichment relative to AAV9, Liver DNA (NHP)” value was 0.291 fold.

Staying with this experiment, now noted: NGS fold-enrichment, liver RNA of NHPs, relative to AAV9 control.
Consider KTIDGSGSPHSKAQNQQH, for which the “Fold Enrichment relative to AAV9, Liver RNA (NHP)” value stood at 0.136 fold.
Regarding KTINGSGSPHSKSQTQQN, the “Fold Enrichment relative to AAV9, Liver RNA (NHP)” value amounted to 0.084 fold.
On the same count and under the same terms, then KTDKTSGSPHSKAQNQQT, with 1.362 fold.

The experiment is the same for the next values; noted with them: NGS fold-enrichment, muscle of NHPs, relative to AAV9 control.
As to KTIDGSGSPHSKAQNQQH, the “Fold Enrichment relative to AAV9, Muscle (NHP)” value is given as 0.000 fold.
Same read-out and setting: the result for KTINGSGSPHSKSQTQQN reads 0.000 fold; that for KTDKTSGSPHSKAQNQQT, 0.000 fold.

The experiment is the same for the next values; noted with them: NHP DRG; relative to AAV9 control.
Consider KTINGGGSPHSKAQNQMT, for which the “Fold Enrichment relative to AAV9, DRG (NHP)” value was 0.000 fold.
As to KTINGSGSPHSKAQKTLT, the “Fold Enrichment relative to AAV9, DRG (NHP)” value turned out to be 0.000 fold.

The same experiment, now with this note: NHP heart; relative to AAV9 control.
On to KTINGGGSPHSKAQNQMT, for which the “Fold Enrichment relative to AAV9, Heart (NHP)” value was 0.000 fold.
As to KTINGSGSPHSKAQKTLT, the “Fold Enrichment relative to AAV9, Heart (NHP)” value stood at 0.017 fold.

The same experiment, now with this note: NHP liver, DNA; relative to AAV9 control.
Regarding KTINGGGSPHSKAQNQMT, the “Fold Enrichment relative to AAV9, Liver DNA (NHP)” value is reported as 0.012 fold.
Same read-out and setting: then KTINGSGSPHSKAQKTLT, with 1.400 fold.

Still in this experiment, the particulars now being: NHP liver, RNA; relative to AAV9 control.
Regarding KTINGGGSPHSKAQNQMT, the “Fold Enrichment relative to AAV9, Liver RNA (NHP)” value worked out at 0.866 fold.
Still for that read-out and setting: the result for KTINGSGSPHSKAQKTLT reads 1.800 fold.

Staying with this experiment, now noted: NHP muscle; relative to AAV9 control.
In the case of KTINGGGSPHSKAQNQMT, the “Fold Enrichment relative to AAV9, Muscle (NHP)” value is 0.000 fold.
The same measure, in the same setting: then KTINGSGSPHSKAQKTLT, with 0.009 fold.

For the next experiment, the system named is brain. The experiment is described as follows: Matured TTM-001 and TTM-002 variants, NGS enrichment in mouse brain. The format is in vivo, mice. Particulars: NGS fold-enrichment, brain of mice, relative to AAV9 control.
Regarding KTIDGSGSPHSKAQNQQH, the “Fold Enrichment relative to AAV9, Brain (Mouse)” value worked out at 57.914 fold.
On the same count and under the same terms, then KTINGSGSPHSKSQTQQN, with 54.021 fold; and KTDKTSGSPHSKAQNQQT, with 169.515 fold.

Staying with this experiment, now noted: NGS fold-enrichment, mouse brain, relative to AAV9 control.
Turning to KTIEGHDSPHKSGRNQQT, the “Fold Enrichment relative to AAV9, Brain (Mouse)” value is reported as 7.818 fold.
On to KTIDGSGSPHSKAQNQQH, for which the “Fold Enrichment relative to AAV9, Brain (Mouse)” value is 57.914 fold.
Turning to KTDAGHDSPHKSGQNQQT, the “Fold Enrichment relative to AAV9, Brain (Mouse)” value is 18.107 fold.
Same read-out and setting: then KTINGSGSPHSKSQTQQN, with 54.021 fold.
With KTDKTSGSPHSKAQNQQT, the “Fold Enrichment relative to AAV9, Brain (Mouse)” value is reported as 169.515 fold.
With KTVNGHDSPHKIGHNQQT, the “Fold Enrichment relative to AAV9, Brain (Mouse)” value worked out at 10.167 fold.

Staying with this experiment, now noted: mouse brain; relative to AAV9 control.
Regarding KTINGGGSPHSKAQNQMT, the “Fold Enrichment relative to AAV9, Brain (Mouse)” value was 73.177 fold.
Still for that read-out and setting: the result for KTINGSGSPHSKAQKTLT reads 66.415 fold.

These data come from patent publication US20260250318A1, “COMPOSITIONS AND METHODS FOR CROSSING THE BLOOD BRAIN BARRIER” (VOYAGER THERAPEUTICS, INC., priority 2022, published 2026).
